Laboratory results: paper PMC7318243, “Computationally Empowered Workflow Identifies Novel Covalent Allosteric Binders for KRAS^G12C” (Chemmedchem, 2020)

Target: T1, KRAS^G12C (Homo sapiens, UniProt P01116, G12C)
T1 construct: KRASG12C (aa 1–169, G12C) were produced for the biochemical assay; made in house
Experiment: Biochemical assay: KRAS^G12C activation by SOS1CAT (HTRF, fluorescent GTP loading)
Details: 180 min pre-incubation with KRAS before addition of SOS1
Protocol: One of the most synthetically accessible compounds, 1,6‐naphthyridin‐5(6H)‐one (1), was prepared (Table 1; Scheme S1). Structurally close to 1, isoquinolin‐1(2H)‐one 2 derivatives were also considered for the exploration of structure‐activity relationships (SAR). To measure the proportion of inhibitor reacting with Cys12 of the KRAS^G12C mutant, the bound/unbound protein ratio was quantified by mass spectrometry (MS). Then, the inhibition potency of these compounds towards KRAS^G12C was evaluated in biochemical assays measuring the activation of GDP‐bound KRAS^G12C or KRAS^WT by SOS1.19 […]
3.3 Biochemical activity assays
Measurement of (i) KRASG12C activation by SOS1CAT and (ii) wild-type KRAS activation by SOS1CAT was performed following the previously described protocol, [19] with a pre-incubation time of the test compound with KRAS proteins extended to 180 min before addi tion of SOS1.
This assay quantifies SOS1 CAT mediated loading of KRAS G12C–GDP with a fluorescent GTP analogue. Detection of successful loading was achieved by measuring resonance energy transfer from anti-GST-terbium (FRET donor) bound to GST -KRASG12C to the loaded fluorescent GTP analogue (FRET acceptor). The fluorescent GTP analogue EDA –GTP–DY-647P1 [2'/3'-O-(2-aminoethyl-carbamoyl)guanosine-5'-triphosphate labelled with DY-647P1 (Dyomics GmbH, Germany)] was synthesized by Jena Bioscience (Germany) a nd supplied as a 1 mM aqueous solution. A KRASG12C working solution was prepared in assay buffer [10 mM HEPES pH 7.4 (AppliChem), 150 mM NaCl (Sigma), 5 mM MgCl2 (Sigma), 1 mM DTT (Thermo Fisher), 0.05% BSA Fraction V pH 7.0 (ICN Biomedicals), 0.0025% (v/v) Igepal (Sigma)] containing 100 nM GST-KRASG12C and 2 nM anti-GST-terbium (Cisbio, France). A SOS1 CAT working solution was prepared in an assay buffer containing 20 nM SOS1CAT and 200 nM EDA–GTP–DY-647P1. An inhibitor control solution was prepared in an assay buffer containing 200 nM EDA–GTP–DY-647P1 without […]
SOS1CAT. All steps of the assay were performed at 20 °C. A volume of 2.5 µL of the KRASG12C working solution was added to all wells of the test plate using a Multidrop dispenser (Thermo LabSystems). After 180 min, 2.5 µL of the SOS1CAT working solution was added to all wells, except for the inhibitor control solution wells. After 30 min incubation, HTRF was measured. […]
SYNAPT G2-S quadrupole time-of-flight mass spectrometer connected to a Waters nanoAcquity UPLC system. Samples were loaded on a 2.1 x 5 mm mass prep C4 guard column (Waters) and desalted with a short grad ient (3 min) of increasing concentrations of acetonitrile at a flow rate of 100 µL/min. Spectra were analyzed by using MassLynx v4.1 software and deconvoluted with the MaxEnt1 algorithm. Percent of conversion was determined by the ratio of signal intensiti es of apo-KRAS and KRAS + inhibitor.

T1 sequence (P01116 1-169 isoform P01116-2 G12C): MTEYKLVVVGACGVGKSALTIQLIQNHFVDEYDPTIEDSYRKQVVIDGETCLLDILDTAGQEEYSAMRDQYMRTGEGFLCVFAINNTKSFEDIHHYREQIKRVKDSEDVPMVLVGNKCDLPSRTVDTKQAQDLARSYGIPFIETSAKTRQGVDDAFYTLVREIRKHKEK

C=CC(=O)N1CCC(c2cc3ncc(-c4c(O)cccc4F)cc3c(=O)[nH]2)C1 (stereo not drawn) [Compound 1, 3-(2-Fluoro-6-hydroxyphenyl)-7-[1-(prop-2-enoyl)pyrrolidin-3-yl]-1,6-naphthyridin-5(6H)-one] showed an IC50 of 2800 nM.
With C=CC(=O)N1CCC(c2cc3ccc(-c4c(O)cccc4F)cc3c(=O)[nH]2)C1 (stereo not drawn) [Compound 2, 7-(2-Fluoro-6-hydroxyphenyl)-3-[1-(prop-2-enoyl)pyrrolidin-3-yl]isoquinolin-1(2H)-one] the IC50 was 4700 nM.
In the case of C=CC(=O)N1CCC(c2cc3cnc(-c4c(O)cccc4F)cc3c(=O)[nH]2)C1 (stereo not drawn) [Compound 13, 7-(2-Fluoro-6-hydroxyphenyl)-3-[1-(prop-2-enoyl)pyrrolidin-3-yl]-2,6-naphthyridin-1(2H)-one], the IC50 is reported as 1300 nM.
